Assay results reported in PMC6199744, “Development of Chemical Proteomics for the Folateome and Analysis of the Kinetoplastid Folateome” (ACS Infectious Diseases, 2018).
Like-named read-outs stand apart in the source and are kept apart here.

How the values were obtained:
[1] = target: PTERIDINE REDUCTASE (TB927.8.2210) (Trypanosoma brucei brucei, UniProt O76290); assay: Multitargeted bead mixture competition; assay type: binding, T. brucei; details: protein PTERIDINE REDUCTASE (CZT00009056.1)
[2] = system: CHOLINE KINASE (TB427TMP.18.0017); assay: Multitargeted bead mixture competition; assay type: binding, T. brucei; details: protein TB427TMP.18.0017 CHOLINE KINASE
[3] = target: GLYCERALDEHYDE 3-PHOSPHATE DEHYDROGENASE, GLYCOSOM (TB427.06.4300) (Trypanosoma brucei brucei, UniProt P22512); assay: Multitargeted bead mixture competition; assay type: binding, T. brucei; details: protein TB427.06.4300 GLYCERALDEHYDE 3-PHOSPHATE DEHYDROGENASE, GLYCOSOMAL
[4] = target: T1, HeLa cell extract proteins (Homo sapiens, UniProt P30740); assay type: binding
T1 construct: endogenous in cells; host or cells: HeLa cell extract
T1 sequence (P30740 1-379): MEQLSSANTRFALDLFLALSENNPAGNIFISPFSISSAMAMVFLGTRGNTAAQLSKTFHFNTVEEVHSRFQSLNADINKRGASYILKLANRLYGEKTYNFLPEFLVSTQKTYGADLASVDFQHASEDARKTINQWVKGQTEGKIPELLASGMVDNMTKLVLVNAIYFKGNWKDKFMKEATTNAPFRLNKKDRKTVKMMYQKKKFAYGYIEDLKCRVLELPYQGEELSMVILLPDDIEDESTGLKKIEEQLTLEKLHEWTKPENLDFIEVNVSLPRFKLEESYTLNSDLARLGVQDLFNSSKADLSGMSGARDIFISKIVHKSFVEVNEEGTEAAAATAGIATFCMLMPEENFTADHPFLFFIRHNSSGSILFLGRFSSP

[5] = system: phenylalanine-4-hydroxylase (PAH); assay: Multitargeted bead mixture competition; assay type: binding, L. major; details: for fold change: protein LMJF.28.1280 PHENYLALANINE-4-HYDROXYLASE, vehicle control = 1
[6] = target: T2, DHFR (Homo sapiens, UniProt P00374); assay: Multitargeted bead mixture competition, HeLa cell extract; assay type: binding; details: for fold changes relative to vehicle control: HeLa
T2 sequence (P00374 1-187): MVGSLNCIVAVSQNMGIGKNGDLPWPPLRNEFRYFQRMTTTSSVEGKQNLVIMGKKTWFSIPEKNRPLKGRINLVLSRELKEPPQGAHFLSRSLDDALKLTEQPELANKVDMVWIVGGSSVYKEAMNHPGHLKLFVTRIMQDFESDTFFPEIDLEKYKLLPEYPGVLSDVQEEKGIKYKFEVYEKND

[7] = target: T3, MTHF complex (DHCH protein in humans) (Homo sapiens, UniProt P11586); assay: as above; assay type: binding; details: HeLa
T3 sequence (P11586 1-935): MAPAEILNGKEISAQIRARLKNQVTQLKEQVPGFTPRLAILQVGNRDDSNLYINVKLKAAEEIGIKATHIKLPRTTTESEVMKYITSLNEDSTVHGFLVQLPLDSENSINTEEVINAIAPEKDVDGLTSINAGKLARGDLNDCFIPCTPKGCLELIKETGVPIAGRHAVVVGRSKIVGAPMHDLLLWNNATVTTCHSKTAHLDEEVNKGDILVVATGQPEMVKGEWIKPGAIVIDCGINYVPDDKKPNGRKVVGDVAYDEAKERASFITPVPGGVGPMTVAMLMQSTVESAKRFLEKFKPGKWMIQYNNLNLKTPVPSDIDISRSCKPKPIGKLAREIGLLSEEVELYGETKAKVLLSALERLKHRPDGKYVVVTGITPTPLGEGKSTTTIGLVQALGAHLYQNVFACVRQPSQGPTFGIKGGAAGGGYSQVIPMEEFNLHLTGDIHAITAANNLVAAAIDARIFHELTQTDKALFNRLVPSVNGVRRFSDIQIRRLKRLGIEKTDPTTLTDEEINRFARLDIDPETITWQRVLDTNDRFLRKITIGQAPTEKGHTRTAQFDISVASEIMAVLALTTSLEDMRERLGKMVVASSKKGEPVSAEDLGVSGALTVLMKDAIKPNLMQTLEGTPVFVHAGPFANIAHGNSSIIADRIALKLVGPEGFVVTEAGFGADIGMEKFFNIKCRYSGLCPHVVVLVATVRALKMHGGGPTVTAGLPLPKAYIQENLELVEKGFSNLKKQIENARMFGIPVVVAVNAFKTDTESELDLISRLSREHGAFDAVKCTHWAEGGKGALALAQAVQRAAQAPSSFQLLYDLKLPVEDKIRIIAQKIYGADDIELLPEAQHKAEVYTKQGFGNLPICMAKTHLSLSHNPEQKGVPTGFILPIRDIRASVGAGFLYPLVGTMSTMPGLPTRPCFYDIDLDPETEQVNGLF

[8] = target: methylene-THF-reductase (Homo sapiens, UniProt P42898); assay: as above; assay type: binding; details: HeLa
[9] = target: T4, MTHFS, the 5-formyl-THF-cyclo-ligase (Homo sapiens, UniProt P49914); assay: as above; assay type: binding; details: HeLa
T4 sequence (P49914 1-203): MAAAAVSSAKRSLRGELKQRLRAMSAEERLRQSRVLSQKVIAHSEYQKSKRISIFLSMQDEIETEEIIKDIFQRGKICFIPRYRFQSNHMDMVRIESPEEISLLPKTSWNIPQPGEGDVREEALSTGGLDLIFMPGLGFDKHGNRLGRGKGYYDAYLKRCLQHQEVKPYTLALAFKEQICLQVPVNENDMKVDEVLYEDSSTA

[10] = target: T5, TS (Homo sapiens, UniProt P04818); assay: as above; assay type: binding; details: HeLa
T5 construct: endogenous in cells; host or cells: HeLa cell extract

[11] = target: T6, PTR1 (Leishmania major, UniProt Q01782); assay type: binding; design: endogenous in cells; host or cells: L. major Friedlin promastigote lysate
T6 sequence (Q01782 1-288): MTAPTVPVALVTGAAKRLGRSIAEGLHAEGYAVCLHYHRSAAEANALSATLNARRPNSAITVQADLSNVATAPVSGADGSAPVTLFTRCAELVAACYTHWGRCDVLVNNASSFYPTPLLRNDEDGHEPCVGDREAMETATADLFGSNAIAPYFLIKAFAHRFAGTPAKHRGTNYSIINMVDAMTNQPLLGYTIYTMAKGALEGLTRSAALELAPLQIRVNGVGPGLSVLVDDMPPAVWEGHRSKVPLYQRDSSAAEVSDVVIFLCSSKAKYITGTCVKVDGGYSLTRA

[12] = LMJF.23.0270 PTERIDINE REDUCTASE 1, vehicle control = 1

Compound | fold change - vehicle control [1] | fold change - vehicle control [2] | fold change - vehicle control [3] | fold changes relative to vehicle control ([4]; protein SERPINB1; HeLa) | fold change [5] | fold changes relative to vehicle control ([6]; captured protein DHFR) | fold changes relative to vehicle control ([7]; protein MTHFD1) | fold changes relative to vehicle control ([8]; captured protein MTHFR) | fold changes relative to vehicle control ([9]; captured protein MTHFS) | fold changes relative to vehicle control ([10]; captured protein TYMS) | fold change [11, 12] | also measured
CCCCCCOc1ccc(Cc2cnc(N)nc2N)cc1 [compound 1] | 1 | 1.05 | 0.93 | 1.07 | 1.16 | 0.46 | 0.05 | 0.27 | 0.21 | 0.76 | 1.1 | binding to DHFR ([6]; bead mixture, HeLa cell extract): found to bind DHFR
NCCCNc1ccc(C(=O)NC(CCC(=O)O)C(=O)O)cc1 (stereo not shown) [compound 7] |  |  |  |  |  |  |  |  |  |  |  | fold change vs vehicle control ([1]; vehicle control = 1): 1.03; fold change vs vehicle control ([2]; vehicle control = 1): 1.16; fold change ([3]; vehicle control = 1): 1.07; fold changes relative to vehicle control ([4]; HeLa; protein SERPINB1): 0.99; fold change vs vehicle control ([5]; protein LMJF.28.1280 PHENYLALANINE-4-HYDROXYLASE,PHENYLALANINE-4-HYDROXYLASE, PUTATIVE): 1.02; fold changes relative to vehicle control ([6]; protein DHFR (SIMILAR TO DIHYDROFOLATE REDUCTASE ISOFORM 2, PARTIAL)): 0.98; fold changes relative to vehicle control ([7]; captured protein MTHFD1 (105 KDA PROTEIN.)): 1; fold changes relative to vehicle control ([8]; protein MTHFR): 1; fold changes relative to vehicle control ([9]; protein MTHFS): 1.03; fold changes relative to vehicle control ([10]; protein TYMS): 1.04; fold change ([11]; vs vehicle control, protein LMJF.23.0270 PTERIDINE REDUCTASE 1): 1.02
CCCCCCOc1cccc(Cc2cnc(N)nc2N)c1 [compound 2] | 0.92 | 1.11 | 1.01 | 1.28 | 1.1 | 2.77 | 0.84 | 0.58 | 0.89 | 1.31 | 1.13 | 
